In PubChem BioAssay AID1918993 (Molecular Pharmacology Branch, DTP, NCI, 2023):
“And” between values parts separate entries of the source, which are not always exact repeats. Equal values may be shown once.

Test system: 233499-124-R-J3-PDC complex spheroid growth
Experiment: Anticancer human tumor 233499-124-R-J3-PDC patient-derived colon adenocarcinoma cell line growth inhibition [AhR]
Settings: for viability, T/C: stronger effect = lower value
Description: Multicellular complex tumor spheroid response to aryl hydrocarbon receptor antagonists in combination with a variety of drugs and investigational agents in selected tumor cell lines
The current study was undertaken to assess response to aryl hydrocarbon receptor antagonists in combination with standard-of-care drugs and investigational agents in solid tumor complex spheroid models. Complex spheroids include a stromal component modeled by human endothelial cells (HUVEC) and fibroblasts modeled by human mesenchymal stem cells (MSCs). The concentration ranges selected for each drug and investigational agent were based upon clinically achievable concentrations if the clinical Cmax of the agent was known.
Compounds. The drugs and investigational agents: BAY 2416964 (NSC825713), GNF351 (NSC835774), CH-223191 (NSC835775), CPI-455 (NSC825282), aza-TdCyd (NSC777586), decitabine (NSC127716), belinostat (NSC758774), entinostat (NSC756642), pevonedistat (NSC761192), tazemetostat (NSC777109), talazoparib (NSC765396), olaparib (NSC753686), selinexor (NSC780203), nedisertib (M3814, NSC802822), bortezomib (NSC756655), venetoclax (NSC766270), doxorubicin (NSC123127), elimusertib (BAY189344, NSC800525), ceralasertib (AZD6738, NSC777638), TAK-243 (NSC785004), alisertib (NSC759677), etoposide (NSC141540), topotecan (NSC609699), eribulin (NSC707389), gemcitabine (NSC613327), carboplatin (NSC241240), cisplatin (NSC119875), and SN-38 (NSC673596) were obtained from the National Cancer Institute (NCI) Developmental Therapeutics Program Chemical Repository (32). The FDA-approved anticancer drug set is available from the Developmental Therapeutics Program at https://dtp.cancer.gov/organization/dscb/obtaining/available plates.htm. […] The stock solutions were prepared in dimethyl sulfoxide (DMSO, Sigma-Aldrich, St. Louis, MO, cat. D2650), except for the platinum compounds which were prepared in saline (Quality Biological, Gaithersburg, MD, cat. 114-055-101), at 800-fold the tested concentration and stored at -70 degrees C prior to their use. All drugs and investigational agents were tested over a range starting from a high concentration at or near the clinical Cmax and decreasing in half-log increments. If the clinical Cmax for an agent had not been determined, the highest concentration tested was 10 microM (Table 1).
Cell Culture. All cells were maintained in an incubator at 37 degrees C and 5% CO2 with 95% humidity. The PDC lines were cultured according to standard operating procedures established by the NCI PDMR (https://pdmr.cancer.gov). Briefly, all PDCs were thawed and cultured in Matrigel-coated flasks prepared with a working solution of 1X Ham's F-12 nutrient mix, without supplementation (Invitrogen, Waltham, MA, cat. 11765054), 100 U/mL penicillin-streptomycin (Invitrogen, cat. 15140122), and 2.5% Matrigel (Corning Inc., Corning, NY, cat. 354248) for the first three passages. All PDCs were cultured in complete DMEM/F-12 media containing advanced DMEM/F-12 (Invitrogen, cat. 12634028), 4.9% defined fetal bovine serum, heat inactivated (HyClone Laboratories Inc., Logan, UT, cat. SH30070.03HI), 389 ng/mL hydrocortisone (Sigma-Aldrich, cat. H4001), 9.7 ng/mL human EGF recombinant protein (Invitrogen, cat. PHG0313), 23.4 microg/mL adenine (Sigma-Aldrich, cat. A2786), 97.3 U/mL penicillin-streptomycin (Invitrogen, cat. 15140122), 1.9 mM L-glutamine (Invitrogen, cat. 25030081), and 9.7 microM Y-27632 dihydrochloride (Tocris Bioscience, Bristol, United Kingdom, cat. 1254). The PDCs were cultured in complete DMEM/F12 media without 10 microM Y-27632 dihydrochloride for at least two passages prior to the screen. The established cell lines NCI-H1341 and […] were cultured in DMEM/F-12, HEPES (Invitrogen, cat. 11330032), 5% defined fetal bovine serum (HyClone Laboratories Inc., cat. SH30070.03), ITS premix universal culture supplement [insulin (5 microg/mL), transferrin (5 microg/mL), and selenious acid (5 ng/mL)] […]
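Note: spheroids exposed to agents for seven days before reading.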

Compound	IC50 (curve of compound)	viability, T/C (compound 0.0316 µM)	viability, T/C (compound 0.1 µM)	viability, T/C (compound 0.316 µM)	viability, T/C (compound 1 µM)	viability, T/C (compound 3.16 µM)	viability, T/C (compound 10 µM)	further results
CC(C)CC(NC(=O)C(Cc1ccccc1)NC(=O)c1cnccn1)B(O)O (stereo not given)	15.8 nM and 17.3 nM and 11.3 nM	–	–	–	–	–	–	viability, T/C (compound 0.000949 µM): 104% and 97.6% and 89.6%; viability, T/C (compound 0.003 µM): 113% and 111% and 104%; viability, T/C (compound 0.00949 µM): 87.6% and 93.6% and 59.1%; viability, T/C (compound 0.03 µM): 3.07% and 10.3% and 0.16%; viability, T/C (compound 0.0949 µM): 0.13% and 0.15% and 0.11%; viability, T/C (compound 0.3 µM): 0.19% and 0.2% and 0.18%
CC(C)c1c(-c2ccccc2)nc2c(C#N)c[nH]n2c1=O	> 10000 nM	101% and 108% and 114%	105% (2×) and 103%	107% and 96% and 113%	94% and 102% and 93.5%	98.7% and 110% and 117%	117% and 124% and 105%	–
CC(CO)NC(=O)c1cc(-c2ccc(Cl)cc2)nn(-c2cnn(C)c2)c1=O (stereo not given)	–	–	–	94.2% [middle of 21 runs]	–	91.3% [middle of 19 runs]	–	IC50 (compound alone, run of 07/12/2022): > 10000 nM
CC[C@@]1(O)C(=O)OCc2c1cc1n(c2=O)Cc2cc3c(CN(C)C)c(O)ccc3nc2-1	> 100 nM	86.8% and 86.6% and 108%	92.3% and 83.2% and 89.9%	–	–	–	–	viability, T/C (compound 0.000316 µM): 104% (2×) and 97.5%; viability, T/C (compound 0.001 µM): 107% and 86.7% and 95.5%; viability, T/C (compound 0.00316 µM): 94.7% and 92% and 87.1%; viability, T/C (compound 0.01 µM): 95% and 99.2% and 93.8%
CCc1c2c(nc3ccc(O)cc13)-c1cc3c(c(=O)n1C2)COC(=O)[C@]3(O)CC	> 300 nM	–	–	–	–	–	–	viability, T/C (compound 0.000949 µM): 117% and 96.2% and 99.4%; viability, T/C (compound 0.003 µM): 93.8% and 87.6% and 85.8%; viability, T/C (compound 0.00949 µM): 89.5% and 85.3% and 77.4%; viability, T/C (compound 0.03 µM): 69.6% and 75.1% and 56.9%; viability, T/C (compound 0.0949 µM): 84.1% and 84% and 77.8%; viability, T/C (compound 0.3 µM): 98.5% and 95.3% and 73.3%
COc1cc(C2c3cc4c(cc3C(OC3OC5COC(C)OC5C(O)C3O)C3COC(=O)C23)OCO4)cc(OC)c1O (stereo not given)	> 10000 nM	101% and 87.7% and 99.6%	92.9% and 95.8% and 106%	98.6% and 95.4% and 95.7%	109% and 93.1% and 94.7%	91.3% and 92.4% and 110%	93.3% and 78.6% and 85.6%	–
COc1cc(Nc2ncc3c(n2)-c2ccc(Cl)cc2C(c2c(F)cccc2OC)=NC3)ccc1C(=O)O	> 10000 nM	86.8% and 75.8% and 70.1%	82.6% and 65.5% and 75.6%	80.1% and 102% and 79.4%	84.1% and 87.8% and 83.3%	97.7% and 89.4% and 91.1%	82.9% and 90.2% and 86%	–

Further lines, with some results ahead:

IC50 (curve of compound)	Compound	viability, T/C (compound 0.0316 µM)	viability, T/C (compound 0.1 µM)	viability, T/C (compound 0.316 µM)	viability, T/C (compound 1 µM)	viability, T/C (compound 3.16 µM)	viability, T/C (compound 10 µM)	further results
> 10000 nM and 8740 nM and 7260 nM	CC1(C)CCC(CN2CCN(c3ccc(C(=O)NS(=O)(=O)c4ccc(NCC5CCOCC5)c([N+](=O)[O-])c4)c(Oc4cnc5[nH]ccc5c4)c3)CC2)=C(c2ccc(Cl)cc2)C1	87.2% and 90.9% and 106%	102% and 112% and 109%	92.4% and 105% and 97.8%	105% and 101% and 104%	112% and 114% and 98.7%	109% and 42.8% and 31.2%	–
784 nM and > 1000 nM and 642 nM	CC1COCCN1c1cc(-c2ccnn2C)c2ccnc(-c3ccn[nH]3)c2n1 (stereo not given)	91.3% and 96.4% and 105%	89.3% and 82.8% and 95.2%	75.3% and 74.5% and 69.8%	43% and 64% and 37.5%	–	–	viability, T/C (compound 0.00316 µM): 94.6% and 92.4% and 98.3%; viability, T/C (compound 0.01 µM): 88.1% and 91.6% and 75%
> 10000 nM	CC1COCCN1c1cc(C2(S(C)(=N)=O)CC2)nc(-c2ccnc3[nH]ccc23)n1 (stereo not given)	103% and 90.3% and 112%	108% and 97% and 92.9%	92.2% and 95% and 95.2%	105% and 97.5% and 94.2%	89.7% and 90.8% and 96.2%	91.8% and 83.7% and 83.1%	–
> 3000 nM	CCN(c1cc(-c2ccc(CN3CCOCC3)cc2)cc(C(=O)NCc2c(C)cc(C)[nH]c2=O)c1C)C1CCOCC1	–	–	–	–	–	–	viability, T/C (compound 0.00949 µM): 92.4% and 97.3% and 86.5%; viability, T/C (compound 0.03 µM): 107% and 97% and 98%; viability, T/C (compound 0.0949 µM): 96.5% and 90.3% and 94.9%; viability, T/C (compound 0.3 µM): 103% and 96.3% and 91.4%; viability, T/C (compound 0.949 µM): 102% and 109% and 100%; viability, T/C (compound 3 µM): 106% and 97.9% and 96.6%
> 10000 nM	COc1ccc([C@@H](O)c2cc(-c3ncnc4cc(N5CCOCC5)ccc34)c(F)cc2Cl)nn1	99.4% and 94% and 95.8%	95.7% and 89% and 102%	94.3% and 102% and 98.5%	99.9% and 87% and 104%	92.7% and 89.7% and 82.3%	98.3% and 91% and 81.9%	–
